Columns and labels:
Assay in all cases: relative viability (nuclei count vs DMSO), 5 days (fraction); higher = more cells survive
[1] = compound: Cc1ccc2nc(NCCN)c3ncc(C)n3c2c1 + N=C(N)NC(=N)NCCc1ccccc1 [Phenformin] (partner 250 µM)
Procedure, shortened: (§1)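 One day after seeding in 1536-well plates, lung cancer cell lines were dosed by pin tool. Dosing was either single-drug or a fixed anchor-drug dose plus five library-drug doses (not always all listed) in √10 steps. After 5 days, nuclei were stained in one fix-and-stain step and counted on 4× images, and relative viability is the nuclei count of treated wells over that of vehicle wells, given as the median of duplicate plates.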

[2] = compound: O=C(/C=C/c1ccccc1)NC(NC(=S)Nc1cccc2cccnc12)C(Cl)(Cl)Cl [Salubrinal] + CC(=O)Nc1cccc(-n2c(=O)n(C3CC3)c(=O)c3c(Nc4ccc(I)cc4F)n(C)c(=O)c(C)c32)c1 [Trametinib] (partner 0.02 µM)
Procedure, shortened: as §1

[3] = compound: O=C(/C=C/c1ccccc1)NC(NC(=S)Nc1cccc2cccnc12)C(Cl)(Cl)Cl [Salubrinal] + CS(=O)(=O)N1CCN(Cc2cc3nc(-c4cccc5[nH]ncc45)nc(N4CCOCC4)c3s2)CC1 [Pictilisib] (partner 1 µM)
Procedure, shortened: as §1

[4] = compound: O=C(/C=C/c1ccccc1)NC(NC(=S)Nc1cccc2cccnc12)C(Cl)(Cl)Cl [Salubrinal] + O=C(CCCCCCC(=O)Nc1ccccc1)NO [Vorinostat] (partner 1 µM)
Procedure, shortened: as §1

Cell Line	relative viability ([1]; first compound 0.04 µM)	relative viability ([1]; first compound 0.1265 µM)	relative viability ([1]; first compound 0.4 µM)	relative viability ([1]; first compound 1.265 µM)	relative viability ([1]; first compound 4 µM)	relative viability ([2]; first compound 0.08 µM)	relative viability ([2]; first compound 0.253 µM)	relative viability ([2]; first compound 0.8 µM)	relative viability ([2]; first compound 2.53 µM)	relative viability ([2]; first compound 8 µM)	relative viability ([3]; first compound 0.08 µM)	relative viability ([3]; first compound 0.253 µM)	relative viability ([3]; first compound 0.8 µM)	relative viability ([3]; first compound 2.53 µM)	relative viability ([3]; first compound 8 µM)	relative viability ([4]; first compound 0.08 µM)	relative viability ([4]; first compound 0.253 µM)	relative viability ([4]; first compound 0.8 µM)	relative viability ([4]; first compound 2.53 µM)	relative viability ([4]; first compound 8 µM)
201T	0.46	0.417	0.452	0.465	0.453	0.741	0.726	0.788	0.728	0.716	0.591	0.636	0.778	0.706	0.678	1.08	0.922	1.03	1.03	0.933
NCI-H23	0.797	0.858	0.704	0.786	0.754	0.437	0.423	0.479	0.334	0.375	0.511	0.583	0.548	0.442	0.486	0.784	0.614	0.644	0.486	0.69
LOU-NH91	0.729	0.693	0.756	0.654	0.664	0.728	0.822	0.788	0.824	0.757	0.541	0.502	0.576	0.479	0.53	0.933	0.925	1.08	0.903	0.841
NCI-H2085	0.817	0.762	0.711	0.722	0.744	0.632	0.539	0.617	0.52	0.487	0.464	0.475	0.512	0.542	0.489	0.832	0.785	0.837	0.771	0.878
COR-L23	0.464	0.448	0.45	0.468	0.37	0.7	0.734	0.736	0.581	0.518	0.946	0.666	0.899	0.676	0.432	0.471	0.419	0.534	0.323	0.356
BEN	0.288	0.265	0.293	0.247	0.296	1.07	1.03	1.07	1.14	1.12	0.567	0.606	0.746	0.643	0.549	0.52	0.543	0.645	0.507	0.571
ChaGo-K-1	0.534	0.544	0.485	0.412	0.435	0.968	0.858	0.882	0.905	0.802	0.73	0.625	1.21	1.01	0.827	0.834	0.683	0.901	0.814	0.77
LK-2	0.358	0.559	0.307	0.325	0.415	0.918	0.812	0.819	0.722	0.744	0.59	0.541	0.666	0.512	0.575	0.257	0.279	0.356	0.395	0.325
NCI-H322M	0.882	0.701	0.767	0.798	0.759	0.542	0.517	0.487	0.565	0.521	0.476	0.541	0.578	0.539	0.498	0.909	0.85	0.831	0.89	0.85
NCI-H520	0.633	0.573	0.445	0.517	0.478	0.853	0.676	0.843	0.633	0.685	0.376	0.212	0.338	0.302	0.316	0.755	0.675	0.787	0.638	0.67
NCI-H1666	0.574	0.573	0.521	0.495	0.535	0.802	0.869	0.847	0.903	0.783	0.398	0.491	0.485	0.404	0.45	0.99	0.886	0.99	1.16	1.11
NCI-H1993	0.506	0.514	0.591	0.552	0.495	0.506	0.614	0.503		0.616	0.817	0.827	0.877	0.773	0.861	0.939	0.592	0.805		0.867
NCI-H1975	0.415	0.394	0.432	0.414	0.355	0.281	0.309	0.36	0.376	0.312	0.259	0.269	0.338	0.269	0.278	0.742	0.616	0.703	0.696	0.676
HCC-44	0.186	0.247	0.157	0.184	0.146	1.19	1.11	1.16	1.09	1.04	0.592	0.591	0.767	0.649	0.493	1.04	1.1	1.13	1	1.04
